# “And” between values parts separate entries of the source, which are not always exact repeats. Identical values can stand only once.
# How the values were obtained:
# Format in all cases: biochemical
# [1] = target: mTOR (Homo sapiens, UniProt P42345); assay: Target kinase 10-point inhibition assay, mTOR; conditions: replicates
# Description: (§1) Quantitation of kinase inhibition was carried out by Life Technologies (Madison, WI) using the SelectScreen profiling platforms Z’-LYTE^TM and Adapta^TM. Single-point broad panel kinome screening was performed at 2.5 µM LP-182 against all kinases within the Z’-LYTE^TM and Adapta^TM assays (321 kinase isoforms, holoenzymes, or mutant variants). The average percent kinase inhibition from replicate data was ranked low to high, converted to a compatible identifier format, then input into Coral Human Kinome Visualization software for presentation analysis. […] Scaling of evolutionary distance for PI kinases is only relative and is based on literature analysis[62],[63]. Average percent kinome inhibition values from replicate data are supplied in Source Data file. […]. Corrected data was normalized to vehicle treated control values, and dose response percent kinase activity was analyzed by non-linear regression for determination of IC50 values.
# [2] = target: Target kinase isoforms (PI3K, mTOR, RAF, MEK) (Homo sapiens, UniProt P48736); assay: Target kinase isoforms 10-point IC50 determination (Supplementary Fig. 7); conditions: PI3K gamma
# Target kinase isoforms (PI3K, mTOR, RAF, MEK) (Homo sapiens, UniProt P48736), sequence (P48736 whole entry, canonical isoform): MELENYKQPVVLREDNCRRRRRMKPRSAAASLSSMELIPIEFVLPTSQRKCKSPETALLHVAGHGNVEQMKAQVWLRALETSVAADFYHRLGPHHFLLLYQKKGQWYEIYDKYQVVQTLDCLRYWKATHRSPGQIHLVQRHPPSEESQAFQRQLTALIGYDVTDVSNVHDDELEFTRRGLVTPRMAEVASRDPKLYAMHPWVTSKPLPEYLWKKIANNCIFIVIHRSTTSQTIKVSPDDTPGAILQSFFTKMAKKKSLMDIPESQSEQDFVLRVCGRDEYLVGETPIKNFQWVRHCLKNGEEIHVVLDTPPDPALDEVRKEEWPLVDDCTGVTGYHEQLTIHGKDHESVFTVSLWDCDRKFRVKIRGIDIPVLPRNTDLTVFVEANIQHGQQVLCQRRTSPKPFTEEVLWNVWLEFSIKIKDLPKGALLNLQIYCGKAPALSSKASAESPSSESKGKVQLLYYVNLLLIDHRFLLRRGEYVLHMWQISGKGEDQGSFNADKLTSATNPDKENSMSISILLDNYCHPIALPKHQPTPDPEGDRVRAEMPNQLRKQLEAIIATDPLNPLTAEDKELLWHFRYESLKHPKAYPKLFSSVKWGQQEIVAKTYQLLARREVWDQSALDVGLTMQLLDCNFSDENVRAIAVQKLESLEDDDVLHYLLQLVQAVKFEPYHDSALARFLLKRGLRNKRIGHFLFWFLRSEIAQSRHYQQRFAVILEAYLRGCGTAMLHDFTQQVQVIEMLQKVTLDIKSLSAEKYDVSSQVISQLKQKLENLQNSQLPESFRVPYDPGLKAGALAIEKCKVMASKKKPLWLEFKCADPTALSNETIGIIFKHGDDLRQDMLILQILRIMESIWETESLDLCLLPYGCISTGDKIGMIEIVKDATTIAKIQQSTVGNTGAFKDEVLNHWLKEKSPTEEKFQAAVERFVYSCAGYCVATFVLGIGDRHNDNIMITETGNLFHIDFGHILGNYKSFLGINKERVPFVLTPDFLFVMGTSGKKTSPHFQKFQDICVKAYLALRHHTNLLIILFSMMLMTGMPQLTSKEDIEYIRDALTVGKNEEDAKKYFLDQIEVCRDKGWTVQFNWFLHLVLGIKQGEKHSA
# In short: (§2)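 Kinase activity across a 10-point dose series was corrected and normalized to vehicle-treated controls. IC50 values were derived by non-linear regression of percent activity. Kinome-wide percent inhibition was averaged over replicates.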
# [3] = target: Target kinase isoforms (PI3K, mTOR, RAF, MEK) (Homo sapiens, UniProt P42338); assay: as above; conditions: PI3K beta
# Target kinase isoforms (PI3K, mTOR, RAF, MEK) (Homo sapiens, UniProt P42338), sequence (P42338 whole entry, canonical isoform): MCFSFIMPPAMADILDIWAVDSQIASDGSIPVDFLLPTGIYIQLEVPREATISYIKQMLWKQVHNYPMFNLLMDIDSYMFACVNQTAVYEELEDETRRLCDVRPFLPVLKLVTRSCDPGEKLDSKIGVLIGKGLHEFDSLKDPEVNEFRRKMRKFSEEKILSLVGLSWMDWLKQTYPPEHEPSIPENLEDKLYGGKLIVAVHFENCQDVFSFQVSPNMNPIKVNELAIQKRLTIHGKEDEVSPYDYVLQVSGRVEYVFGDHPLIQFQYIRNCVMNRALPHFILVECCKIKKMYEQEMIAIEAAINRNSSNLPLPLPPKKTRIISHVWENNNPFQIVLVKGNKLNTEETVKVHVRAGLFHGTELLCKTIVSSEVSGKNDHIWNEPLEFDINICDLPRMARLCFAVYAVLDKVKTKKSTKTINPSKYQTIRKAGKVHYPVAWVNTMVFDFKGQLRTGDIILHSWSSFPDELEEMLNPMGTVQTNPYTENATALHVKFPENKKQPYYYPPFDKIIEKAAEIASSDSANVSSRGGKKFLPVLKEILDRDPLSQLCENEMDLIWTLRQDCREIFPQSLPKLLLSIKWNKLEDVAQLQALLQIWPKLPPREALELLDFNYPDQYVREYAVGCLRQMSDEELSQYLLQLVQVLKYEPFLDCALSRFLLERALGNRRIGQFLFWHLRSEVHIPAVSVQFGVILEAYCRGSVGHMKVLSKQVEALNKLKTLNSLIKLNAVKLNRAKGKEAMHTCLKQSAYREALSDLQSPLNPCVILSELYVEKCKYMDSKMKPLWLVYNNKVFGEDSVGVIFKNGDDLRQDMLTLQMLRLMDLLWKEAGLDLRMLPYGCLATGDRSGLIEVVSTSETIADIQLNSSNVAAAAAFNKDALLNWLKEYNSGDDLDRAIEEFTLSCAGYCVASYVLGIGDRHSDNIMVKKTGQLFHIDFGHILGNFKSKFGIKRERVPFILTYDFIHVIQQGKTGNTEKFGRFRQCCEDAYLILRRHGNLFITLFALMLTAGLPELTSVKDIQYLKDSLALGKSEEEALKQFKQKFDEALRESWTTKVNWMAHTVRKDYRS
# In short: as §2
# [4] = target: Target kinase isoforms (PI3K, mTOR, RAF, MEK) (Homo sapiens, UniProt P42336); assay: as above; conditions: PI3K alpha
# Target kinase isoforms (PI3K, mTOR, RAF, MEK) (Homo sapiens, UniProt P42336), sequence (P42336 whole entry, canonical isoform): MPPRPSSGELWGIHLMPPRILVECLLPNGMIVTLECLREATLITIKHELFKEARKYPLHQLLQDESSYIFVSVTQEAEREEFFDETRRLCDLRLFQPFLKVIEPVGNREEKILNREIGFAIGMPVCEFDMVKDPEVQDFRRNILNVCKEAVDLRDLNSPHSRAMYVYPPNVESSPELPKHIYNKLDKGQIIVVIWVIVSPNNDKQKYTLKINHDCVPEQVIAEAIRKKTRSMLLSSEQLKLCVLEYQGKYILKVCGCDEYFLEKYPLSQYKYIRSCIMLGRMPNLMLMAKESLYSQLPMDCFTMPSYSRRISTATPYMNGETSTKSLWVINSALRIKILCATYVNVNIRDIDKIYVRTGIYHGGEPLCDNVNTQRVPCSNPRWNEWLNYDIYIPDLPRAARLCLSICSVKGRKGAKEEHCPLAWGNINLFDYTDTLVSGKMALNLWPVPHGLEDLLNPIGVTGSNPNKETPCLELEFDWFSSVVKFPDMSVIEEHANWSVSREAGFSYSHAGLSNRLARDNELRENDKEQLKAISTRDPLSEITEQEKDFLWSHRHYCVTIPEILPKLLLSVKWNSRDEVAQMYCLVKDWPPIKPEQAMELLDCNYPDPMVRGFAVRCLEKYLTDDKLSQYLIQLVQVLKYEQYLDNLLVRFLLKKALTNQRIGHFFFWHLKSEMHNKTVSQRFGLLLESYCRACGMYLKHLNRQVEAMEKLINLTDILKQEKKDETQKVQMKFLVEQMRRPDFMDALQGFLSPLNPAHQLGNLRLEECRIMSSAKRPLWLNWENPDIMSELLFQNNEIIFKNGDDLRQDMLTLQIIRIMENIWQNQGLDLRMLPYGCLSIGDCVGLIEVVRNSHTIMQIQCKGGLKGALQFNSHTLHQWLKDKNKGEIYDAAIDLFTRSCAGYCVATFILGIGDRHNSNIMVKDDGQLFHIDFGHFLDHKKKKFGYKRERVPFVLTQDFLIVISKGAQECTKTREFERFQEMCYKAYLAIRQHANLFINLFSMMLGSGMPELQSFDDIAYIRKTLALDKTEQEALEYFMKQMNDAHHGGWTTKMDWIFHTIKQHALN
# In short: as §2
# [5] = target: PI3Kγ (Homo sapiens, UniProt P48736); assay: Target kinase 10-point inhibition assay, PI3Kγ; conditions: PI3K gamma, replicates
# PI3Kγ, sequence (P48736 whole entry): as the sequence (P48736 whole entry, canonical isoform) above
# Description: as §1
# [6] = concentration 0.495 nM, 0.000495 µM
# [7] = concentration 41.2 nM, 0.0412 µM
# mTOR, sequence (P42345 1360-2549 limits assumed): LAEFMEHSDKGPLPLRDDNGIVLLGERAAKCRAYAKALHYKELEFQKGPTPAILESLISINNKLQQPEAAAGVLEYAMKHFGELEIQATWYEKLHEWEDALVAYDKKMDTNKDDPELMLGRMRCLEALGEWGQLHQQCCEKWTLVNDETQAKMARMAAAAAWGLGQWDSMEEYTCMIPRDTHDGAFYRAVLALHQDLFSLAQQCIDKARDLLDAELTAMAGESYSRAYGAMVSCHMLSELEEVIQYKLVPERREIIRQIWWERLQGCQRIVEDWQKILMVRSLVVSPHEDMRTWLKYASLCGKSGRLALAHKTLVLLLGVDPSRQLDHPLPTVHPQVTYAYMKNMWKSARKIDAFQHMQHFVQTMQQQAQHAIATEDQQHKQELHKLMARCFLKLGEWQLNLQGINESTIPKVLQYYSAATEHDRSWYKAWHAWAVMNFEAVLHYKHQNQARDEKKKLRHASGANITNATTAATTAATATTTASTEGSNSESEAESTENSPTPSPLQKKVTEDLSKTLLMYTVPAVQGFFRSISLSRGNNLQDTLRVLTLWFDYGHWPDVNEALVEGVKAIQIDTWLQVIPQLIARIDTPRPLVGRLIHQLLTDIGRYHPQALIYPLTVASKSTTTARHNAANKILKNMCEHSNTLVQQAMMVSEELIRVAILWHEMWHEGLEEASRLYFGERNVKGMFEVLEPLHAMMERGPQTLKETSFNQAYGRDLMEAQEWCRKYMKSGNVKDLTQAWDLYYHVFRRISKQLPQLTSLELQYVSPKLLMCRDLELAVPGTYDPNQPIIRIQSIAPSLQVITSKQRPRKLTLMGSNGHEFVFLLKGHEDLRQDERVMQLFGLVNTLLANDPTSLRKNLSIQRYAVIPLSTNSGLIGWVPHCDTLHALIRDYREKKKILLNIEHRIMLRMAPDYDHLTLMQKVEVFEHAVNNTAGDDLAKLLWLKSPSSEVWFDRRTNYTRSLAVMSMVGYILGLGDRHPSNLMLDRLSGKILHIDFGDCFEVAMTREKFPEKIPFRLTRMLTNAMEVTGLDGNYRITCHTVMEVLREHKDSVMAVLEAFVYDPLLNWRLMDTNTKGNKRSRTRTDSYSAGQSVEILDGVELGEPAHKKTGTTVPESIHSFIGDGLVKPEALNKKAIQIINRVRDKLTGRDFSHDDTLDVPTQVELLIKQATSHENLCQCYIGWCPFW
smiles,measurement,setting,value
"O=C(NOCCOCCOCCOCCC(=O)N1CCN(c2cnc3ccc(-c4cnc(Cl)c(NS(=O)(=O)c5ccc(F)cc5)c4)cc3n2)CC1)c1ccc(F)c(F)c1Nc1ccc(I)cc1F [LP-182, N-(2-(2-(2-(3-(4-(7-(6-chloro-5-((4-fluorophenyl)sulfonamido)pyridin-3-yl)quinoxalin-2-yl)piperazin-1-yl)-3-oxopropoxy)ethoxy)ethoxy)ethoxy)-3,4-difluoro-2-((2-fluoro-4-iodophenyl)amino)benzamide]",activity at 0.000495 µM,[1]; 0.495 nM,95%
same,Kinase Activity (%),"[1]; 0.495 nM, 0.000495 µM",99% and 98% and 101% and 94% and 96%
same,activity at 0.00152 µM,[1]; 1.52 nM,97%
same,Kinase Activity (%),"[1]; 1.52 nM, 0.00152 µM",99% and 100% and 94% (2×)
same,activity at 0.00457 µM,[1]; 4.57 nM,91%
same,Kinase Activity (%),"[1]; 4.57 nM, 0.00457 µM",92% and 94% and 87% and 88%
same,activity at 0.0412 µM,[1]; 41.2 nM,52%
same,Kinase Activity (%),"[1]; 41.2 nM, 0.0412 µM",63% and 57% (2×) and 47% (2×)
same,activity at 0.123 µM,[1]; 123 nM,29%
same,Kinase Activity (%),"[1]; 123 nM, 0.123 µM",30% (2×) and 32% and 31%
same,activity at […],[1]; 370 nM,13%
same,Kinase Activity (%),"[1]; 1110 nM, 1.11 µM",4% and 3% (2×) and 5% and 1% and 2%
same,Kinase Activity (%),"[1]; 3330 nM, 3.33 µM",0% (4×) and -1% and -2%
same,Kinase Activity (%),"[1]; 10000 nM, 10 µM",2% and -1% (4×) and 1%
same,activity at 0.123 µM,[2]; concentration 123 nM,20%
same,activity at […],[2]; concentration 370 nM,6%
same,Kinase Activity (%) PI3K gamma,"[2]; concentration 1110 nM, 1.11 µM",1% and 3% and 4% and 0%
same,Kinase Activity (%) PI3K gamma,"[2]; concentration 3330 nM, 3.33 µM",0% and 1%
same,Kinase Activity (%) PI3K gamma,"[2]; concentration 10000 nM, 10 µM",4% and 0% and 2%
same,Kinase Activity (%) PI3K beta,[3]; [6],105% and 85% and 110% and 102% and 121% and 113%
same,Kinase Activity (%) PI3K beta,"[3]; concentration 1.52 nM, 0.00152 µM",95% and 99% and 101% and 103% and 119% and 118%
same,Kinase Activity (%) PI3K beta,"[3]; concentration 4.57 nM, 0.00457 µM",89% and 94% and 105% and 106% and 117% and 114%
same,Kinase Activity (%) PI3K beta,[3]; [7],80% and 74% and 95% and 101% and 98% and 107%
same,Kinase Activity (%) PI3K beta,"[3]; concentration 123 nM, 0.123 µM",63% and 51% and 71% and 72% and 84%
same,activity at 3.33 µM,[3]; concentration 3330 nM,16%
same,Kinase Activity (%) PI3K beta,"[3]; concentration 3330 nM, 3.33 µM",24% and 12% and 13% and 14%
same,Kinase Activity (%) PI3K beta,"[3]; concentration 10000 nM, 10 µM",13% and 5% and 3%
same,Kinase Activity (%) PI3K alpha,"[4]; concentration 0.0188 nM, 18.8 pM",97% and 99% and 100% and 98% and 76% and 90%
same,Kinase Activity (%) PI3K alpha,"[4]; concentration 0.0564 nM, 56.4 pM",93% and 98% and 99% and 108% and 106% and 80% and 82% and 89%
same,Kinase Activity (%) PI3K alpha,[4]; [6],79%
same,activity at 0.00457 µM,[4]; concentration 4.57 nM,27%
same,Kinase Activity (%) PI3K alpha,[4]; [7],4% and 6% and 8% and 9% and 5% and 10% and 7%
same,Kinase Activity (%) PI3K alpha,"[4]; concentration 123 nM, 0.123 µM",1% and 3% and 4% and 2% and 6%
same,Kinase Activity (%) PI3K alpha,"[4]; concentration 1110 nM, 1.11 µM",0% and 1%
same,Kinase Activity (%) PI3K alpha,"[4]; concentration 3330 nM, 3.33 µM",1% and 0% and 2%
same,Kinase Activity (%) PI3K alpha,"[4]; concentration 10000 nM, 10 µM",5% and 0% and 3% and 1%
same,Kinase Activity (%),"[5]; 0.495 nM, 0.000495 µM",106% and 101% and 126% and 100% and 96% and 89% and 105% and 98%
same,Kinase Activity (%),"[5]; 1.52 nM, 0.00152 µM",108% and 97% and 115% and 123% and 99% (2×) and 105% and 90% and 88% and 93%
same,Kinase Activity (%),"[5]; 4.57 nM, 0.00457 µM",89% and 94% (2×) and 106% and 98% and 93% and 87% and 82% and 77% and 92%
same,Kinase Activity (%),"[5]; 41.2 nM, 0.0412 µM",50% (2×) and 48% and 43% and 55% and 47% and 37% and 30% and 31% and 32%
same,activity at 0.123 µM,[5]; 123 nM,20%
same,Kinase Activity (%),"[5]; 123 nM, 0.123 µM",21% (3×) and 25% and 22% and 19% and 16% (2×) and 13%
same,activity at […],[5]; 370 nM,6%
same,Kinase Activity (%),"[5]; 1110 nM, 1.11 µM",1% (4×) and 4% and 0% and 2% (2×) and 3% (2×)
same,Kinase Activity (%),"[5]; 3330 nM, 3.33 µM",0% (9×) and 1%
same,Kinase Activity (%),"[5]; 10000 nM, 10 µM",4% and 0% (8×) and 2%

# Reference: PMC9386018, “A lymphatic-absorbed multi-targeted kinase inhibitor for myelofibrosis therapy” (Nature Communications, 2022)
